# Target: T1, human Trk A kinase (Homo sapiens, UniProt P04629)
# T1 construct: HIS; made in house; host or cells: SF9 cells
# Test: Trk A kinase assay (Alphascreen, phosphorylation of PolyEY-biotin substrate)
# Type: biochemical
# Details: 0.838 ng/ml Trk A, 70 μM ATP, 20 minutes, room temperature; read-out: IC50 (Trk inhibitory activity)
# Experimental: Trk A kinase activity was determined by measuring the kinase's ability to phosphorylate synthetic tyrosine residues within a generic polypeptide substrate using an Amplified Luminescent Proximity Assay (Alphascreen) technology (PerkinElmer, 549 Albany Street, Boston, Mass.).
# To measure Trk A kinase activity, the intracellular domain of a HIS-tagged human Trk A kinase (amino acids 442-796 of Trk A, Swiss-Prot Primary Accession Number P04629) may be expressed in SF9 cells and purified using standard nickel column chromatography. After incubation of the kinase with a biotinylated substrate and adenosine triphosphate (ATP) for 20 minutes at room temperature, the kinase reaction may be stopped by the addition of 30 mM ethylenediaminetetraacetic acid (EDTA). The reaction may be performed in 384 well microtitre plates and the reaction products may be detected with the addition of strepavidin coated Donor Beads and phosphotyrosine-specific antibodies coated Acceptor Beads using the EnVision Multilabel Plate Reader after an overnight incubation at room temperature.
# T1 sequence (P04629 442-796): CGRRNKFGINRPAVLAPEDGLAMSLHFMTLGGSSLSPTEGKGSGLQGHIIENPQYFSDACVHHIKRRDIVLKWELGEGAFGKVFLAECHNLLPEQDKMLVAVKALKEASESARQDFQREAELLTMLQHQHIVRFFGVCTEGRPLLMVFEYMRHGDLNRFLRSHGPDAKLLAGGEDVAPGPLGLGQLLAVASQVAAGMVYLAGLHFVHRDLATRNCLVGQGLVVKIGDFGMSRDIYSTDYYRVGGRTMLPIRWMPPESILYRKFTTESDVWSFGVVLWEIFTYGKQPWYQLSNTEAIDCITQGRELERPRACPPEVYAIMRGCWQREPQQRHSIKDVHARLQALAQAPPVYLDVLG
row,IC50 [nM],SMILES
1,3,"COc1cc(Nc2nc3c(cc2F)ncn3[C@@H](C)c2ncc(F)cn2)n[nH]1 [Example 7, 6-Fluoro-3-[(1S)-1-(5-fluoropyrimidin-2-yl)-ethyl]-N-(5-methoxy-1H-pyrazol-3-yl)-3H-imidazo[4,5-b]pyridin-5-amine]"
2,3,"C[C@@H](c1ncc(F)cn1)n1cnc2cc(F)c(Nc3cc(C4CC4)[nH]n3)nc21 [Example 5, N-(5-Cyclopropyl-1H-pyrazol-3-yl)-6-fluoro-3-[(1S)-1-(5-fluoropyrimidin-2-yl)-ethyl]-3H-imidazo[4,5-b]pyridin-5-amine]"
3,3300,"Cc1cc(Nc2nc3c(cc2F)[nH]c(=O)n3[C@@H](C)c2ncc(F)cn2)n[nH]1 [Example 14, 6-Fluoro-3-[(1S)-1-(5-fluoropyrimidin-2-yl)ethyl]-5-[(5-methyl-1H-pyrazol-3-yl)amino]-1,3-dihydro-2H-imidazo[4,5-b]pyridin-2-one]"
4,3,"COc1cc(Nc2nc3c(cc2F)ncn3[C@@H](CO)c2ccc(F)cn2)n[nH]1 [Example 9, (2R)-2-{6-Fluoro-5-[(5-methoxy-1H-pyrazol-3-yl)-amino]-3H-imidazo[4,5-b]pyridin-3-yl}-2-(5-fluoropyridin-2-yl)-ethanol]"
5,3,"CC(C)Oc1cc(Nc2nc3c(cc2F)ncn3[C@@H](C)c2ncc(F)cn2)n[nH]1 [Example 6, 6-Fluoro-3-[(1S)-1-(5-fluoropyrimidin-2-yl)-ethyl]-N-(5-isopropoxy-1H-pyrazol-3-yl)-3H-imidazo[4,5-b]pyridin-5-amine]"
6,21,"Cc1cc(Nc2nc3c(cc2F)ncn3[C@@H](C)c2ccc(F)cn2)n[nH]1 [Example 13, 6-Fluoro-3-[(1S)-1-(5-fluoropyridin-2-yl)ethyl]-N-(5-methyl-1H-pyrazol-3-yl)-3H-imidazo[4,5-b]pyridin-5-amine]"
7,3,"CCOc1cc(Nc2nc3c(cc2F)ncn3[C@@H](C)c2ccc(F)cn2)n[nH]1 [Example 3, N-(5-Ethoxy-1H-pyrazol-3-yl)-6-fluoro-3-[(1S)-1-(5-fluoropyridin-2-yl)-ethyl]-3H-imidazo[4,5-b]pyridin-5-amine]"
8,3,"COc1cc(Nc2nc3c(cc2F)ncn3[C@@H](C)c2ccc(F)cn2)n[nH]1 [Example 11, 6-Fluoro-3-[(1S)-1-(5-fluoropyridin-2-yl)-ethyl]-N-(5-methoxy-1H-pyrazol-3-yl)-3H-imidazol-[4,5-b]pyridin-5-amine]"
9,283,"Cc1cc(Nc2nc3c(cc2F)ncn3Cc2ncc(F)cc2F)n[nH]1 [Example 17, 3-[(3,5-Difluoropyridin-2-yl)methyl]-6-fluoro-N-(5-methyl-1H-pyrazol-3-yl)-3H-imidazo[4,5-b]pyridin-5-amine]"
10,393,"Cc1cc(Nc2nc3c(cc2F)nc(C)n3Cc2ncc(F)cc2F)n[nH]1 [Example 18, 3-[(3,5-Difluoropyridin-2-yl)methyl]-6-fluoro-2-methyl-N-(5-methyl-1H-pyrazol-3-yl)-3H-imidazo[4,5-b]pyridin-5-amine]"
11,73,"Cc1cc(Nc2nc3c(cc2F)ncn3[C@@H](CO)c2ccc(F)cn2)n[nH]1 [Example 16, (2R)-2-{6-Fluoro-5-[(5-methyl-1H-pyrazol-3-yl)amino]-3H-imidazo[4,5-b]pyridin-3-yl}-2-(5-fluoropyridin-2-yl)ethanol]"
12,3,"CCOc1cc(Nc2nc3c(cc2F)ncn3[C@@H](CO)c2ccc(F)cn2)n[nH]1 [Example 10, (2R)-2-{5-[(5-Ethoxy-1H-pyrazol-3-yl)-amino]-6-fluoro-3H-imidazo[4,5-b]pyridin-3-yl}-2-(5-fluoropyridin-2-yl)-ethanol]"
13,9350,"Cc1cc(Nc2nc3c(cc2F)nc(C)n3[C@@H](C)c2ncc(F)cn2)n[nH]1 [Example 15, 6-Fluoro-3-[(1S)-1-(5-fluoropyrimidin-2-yl)ethyl]-2-methyl-N-(5-methyl-1H-pyrazol-3-yl)-3H-imidazo[4,5-b]pyridin-5-amine]"
14,23,"C[C@@H](c1ccc(F)cn1)n1cnc2ccc(Nc3cc(C4CC4)[nH]n3)nc21 [Example 2, N-(5-Cyclopropyl-1H-pyrazol-3-yl)-3-[(1S)-1-(5-fluoropyridin-2-yl)ethyl]-3H-imidazo[4,5-b]pyridin-5-amine]"
15,3,"CC(C)Oc1cc(Nc2nc3c(cc2F)ncn3[C@@H](CO)c2ccc(F)cn2)n[nH]1 [Example 8, (2R)-2-{6-Fluoro-5-[(5-isopropoxy-1H-pyrazol-3-yl)-amino]-3H-imidazo[4,5-b]pyridine-3-yl}-2-(5-fluoropyridin-2-yl)-ethanol]"
16,3,"C[C@@H](c1ccc(F)cn1)n1cnc2cc(F)c(Nc3cc(C4CC4)[nH]n3)nc21 [Example 1, N-(5-Cyclopropyl-1H-pyrazol-3-yl)-6-fluoro-3-[(1S)-1-(5-fluoropyridin-2-yl)-ethyl]-3H-imidazo[4,5-b]-pyridin-5-amine]"
17,3,"CC(C)Oc1cc(Nc2nc3c(cc2F)ncn3[C@@H](C)c2ccc(F)cn2)n[nH]1 [Example 4, 6-Fluoro-3-[(1S)-1-(5-fluoropyridin-2-yl)-ethyl]-N-(5-isopropoxy-1H-pyrazol-3-yl)-3H-imidazo[4,5-b]pyridin-5-amine]"
18,66,"Cc1cc(Nc2nc3c(cc2F)ncn3[C@@H](C)c2ncc(F)cn2)n[nH]1 [Example 12, 6-Fluoro-3-[(1S)-1-(5-fluoropyrimidin-2-yl)ethyl]-N-(5-methy 1-1H-pyrazol-3-yl)-3H-imidazo[4,5-b]pyridin-5-amine]"

# Target: T2, human JAK2 (Homo sapiens, UniProt O60674)
# T2 construct: human JAK2, amino acids 808-end; His6 (C); purchased Upstate Biotechnology; host or cells: baculovirus in Sf21 cells
# T2 sequence (O60674 808-1132 limits assumed): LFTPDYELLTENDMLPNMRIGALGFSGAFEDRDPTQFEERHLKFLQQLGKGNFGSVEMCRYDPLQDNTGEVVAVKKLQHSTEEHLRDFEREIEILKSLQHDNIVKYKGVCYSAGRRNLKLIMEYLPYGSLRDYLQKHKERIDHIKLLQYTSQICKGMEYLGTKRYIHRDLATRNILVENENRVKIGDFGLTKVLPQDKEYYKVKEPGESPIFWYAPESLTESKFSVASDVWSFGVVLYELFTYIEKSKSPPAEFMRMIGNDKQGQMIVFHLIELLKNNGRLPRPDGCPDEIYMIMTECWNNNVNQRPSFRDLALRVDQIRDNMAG
# Test: JAK2 kinase assay (Alphascreen, phosphorylation of biotinylated peptide substrate)
# Type: biochemical
# Details: 150pM JAK2 enzyme, 30 μM ATP, 60 minutes, room temperature; read-out: IC50 (JAK inhibitory activity)
# Experimental: JAK2 kinase activity was determined by measuring the kinase's ability to phosphorylate synthetic tyrosine residues within a generic polypeptide substrate using an Amplified Luminescent Proximity Assay (Alphascreen) technology (PerkinElmer, 549 Albany Street, Boston, Mass.).
# To measure JAK2 kinase activity, a commercially available purified enzyme may be used. The enzyme may be a C-terminal His6-tagged, recombinant, human JAK2, amino acids 808-end, (Genbank Accession number NM 004972) expressed by baculovirus in Sf21 cells (Upstate Biotechnology MA). After incubation of the kinase with a biotinylated substrate and adenosine triphosphate (ATP) for 60 minutes at room temperature, the kinase reaction may be stopped by the addition of 30 mM ethylenediaminetetraacetic acid (EDTA). The reaction may be performed in 384 well microtitre plates and the reaction products may be detected with the addition of streptavidin coated Donor Beads and phosphotyrosine-specific antibodies coated Acceptor Beads using the EnVision Multilabel Plate Reader after an overnight incubation at room temperature.
row,IC50 [nM],SMILES
1,11,"CCOc1cc(Nc2nc3c(cc2F)ncn3[C@@H](C)c2ccc(F)cn2)n[nH]1 [Example 3, N-(5-Ethoxy-1H-pyrazol-3-yl)-6-fluoro-3-[(1S)-1-(5-fluoropyridin-2-yl)-ethyl]-3H-imidazo[4,5-b]pyridin-5-amine]"

# Reference: patent US20100204246A1, “5-AMINOPYRAZOL-3-YL-3H-IMIDAZO (4,5-B) PYRIDINE DERIVATIVES AND THEIR USE FOR THE TREATMENT OF CANCER” (AstraZeneca AB, priority 2007, published 2010)
